The supplement of paper PMC11061612

Columns and labels:
[1] = system: HuP-T3 (Pancreatic Carcinoma); assay: combination Emax (second highest fraction inhibited in the dose matrix, 72 h); higher = more inhibition; extreme values may be limits of the assay
Summary of the method: (§1)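 Cell lines grown in DMEM/F12 or RPMI with 10% FBS were plated in 1536-well plates and held 24 hours at 37°C, 5% CO2 before 72 hours of exposure to two-drug dose matrices, with DMSO typically at 0.2%. CellTiter-Glo 2.0 luminescence gave viability, which was converted to inhibition. Vehicle wells were set to 0 and blank wells to 1. Combination Emax is the second-highest inhibition in the matrix, and Bliss excess is the observed combination effect minus the expected EA + EB − EA·EB, where EA and EB are the single-agent effects.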

GI-1 (Glioblastoma) = assay: as above
Summary of the method: as §1

[2] = system: NCI-H2347 (Lung Adenocarcinoma); assay: as above
Summary of the method: as §1

[3] = system: OCUM-1 (Gastric Carcinoma); assay: as above
Summary of the method: as §1

[4] = system: NCI-H513 (Other Solid Carcinomas); assay: as above
Summary of the method: as §1

[5] = system: OCUB-M (Breast Carcinoma); assay: as above
Summary of the method: as §1

[6] = system: H-EMC-SS (Chondrosarcoma); assay: as above
Summary of the method: as §1

[7] = system: EBC-1 (Squamous Cell Lung Carcinoma); assay: Bliss excess, mean over the matrix (fraction); higher = more synergy
Summary of the method: as §1

[8] = system: KYSE-50 (Esophageal Squamous Cell Carcinoma); assay: as above
Summary of the method: as §1

[9] = system: ASH-3 (Thyroid Gland Carcinoma); assay: as above
Summary of the method: as §1

BT-20 (Breast Carcinoma) = assay: as above
Summary of the method: as §1

NH-12 (Neuroblastoma) = assay: as above
Summary of the method: as §1

[10] = system: LC4-1 (B-Lymphoblastic Leukemia); assay: as above
Summary of the method: as §1

[11] = system: PFSK-1 (Other Solid Carcinomas); assay: as above
Summary of the method: as §1

[12] = system: PF-382 (T-Lymphoblastic Leukemia); assay: as above
Summary of the method: as §1

[13] = system: SCC-3 (B-Cell Non-Hodgkin's Lymphoma); assay: as above
Summary of the method: as §1

[14] = system: LOU-NH91 (Squamous Cell Lung Carcinoma); assay: as above
Summary of the method: as §1

[15] = system: H-EMC-SS (Chondrosarcoma); assay: as above
Summary of the method: as §1

[16] = system: OVISE (Ovarian Carcinoma); assay: as above
Summary of the method: as §1

[17] = system: EMC-BAC-2 (Non-Small Cell Lung Carcinoma); assay: as above
Summary of the method: as §1
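For Bliss excess, mean over the matrix in this document: after 72 h of two-drug dosing.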

| Compound | combination Emax [1] | combination Emax (GI-1 (Glioblastoma)) | combination Emax [2] | combination Emax [3] | combination Emax [4] | combination Emax [5] | combination Emax [6] | Bliss excess [7] | Bliss excess [8] | Bliss excess [9] | Bliss excess (BT-20 (Breast Carcinoma)) | Bliss excess (NH-12 (Neuroblastoma)) | Bliss excess [10] | Bliss excess [11] | Bliss excess [12] | Bliss excess [13] | Bliss excess [14] | Bliss excess [15] | Bliss excess [16] | Bliss excess [17] |
| --- | --- | --- | --- | --- | --- | --- | --- | --- | --- | --- | --- | --- | --- | --- | --- | --- | --- | --- | --- | --- |
| CN(CCO)CC[C@H](CSc1ccccc1)Nc1ccc(S(=O)(=O)NC(=O)c2ccc(N3CCC([C@@H](O)c4ccccc4-c4ccc(Cl)cc4)CC3)cc2)cc1S(=O)(=O)C(F)(F)F [AZD4320] + C[C@@H](Nc1cc(F)cc(F)c1)c1cc(C(=O)N(C)C)cc2c(=O)cc(N3CCOCC3)oc12 [AZD8186] (first compound max 1 µM, 7x7, partner max 3 µM) | 0.332 | 0.813 | 0.698 | 0.884 | 0.342 | 0.835 | 0.727 | 0.0576 | 0.0097 | -0.051 | 0.0586 | -0.0224 | 0.0908 | 0.0634 | 0.0836 | 0.0118 | -0.0046 | -0.0277 | -0.0322 | 0.0472 |
| COc1nnc2ccc(N3CCC(c4ccc(OCCN5CCN(C)C(=O)[C@H]5C)cc4)CC3)nn12 [AZD5153] + CC1(C)CCC(CN2CCN(c3ccc(C(=O)NS(=O)(=O)c4ccc(NCC5CCOCC5)c([N+](=O)[O-])c4)c(Oc4cnc5[nH]ccc5c4)c3)CC2)=C(c2ccc(Cl)cc2)C1 [Venetoclax] (first compound max 1 µM, 7x7, partner max 1 µM) | 0.517 | 0.763 | 0.331 | 0.567 | 0.358 | 0.39 | 0.27 | -0.0413 | -0.0591 | 0.0122 | -0.071 | -0.0333 | -0.0482 | -0.0853 | -0.0551 | -0.0213 | -0.0758 | -0.0508 | -0.013 | -0.101 |
| COc1nnc2ccc(N3CCC(c4ccc(OCCN5CCN(C)C(=O)[C@H]5C)cc4)CC3)nn12 [AZD5153] + Cc1c2c(nn1C)CSCc1cc(n(C)n1)CSc1cc(c3ccccc3c1)OCCCc1c(C(=O)O)n(C)c3c-2c(Cl)ccc13 [AZD5991] (first compound max 1 µM, 7x7, partner max 1 µM) | 0.534 | 0.961 | 0.39 | 0.581 | 0.423 | 1 | 0.345 | -0.0528 | 0.0144 | -0.114 | 0.0213 | -0.0206 | -0.0736 | 0.0454 | 0.0145 | 0.029 | -0.0449 | -0.0212 | -0.039 | -0.0589 |
| CN(CCO)CC[C@H](CSc1ccccc1)Nc1ccc(S(=O)(=O)NC(=O)c2ccc(N3CCC([C@@H](O)c4ccccc4-c4ccc(Cl)cc4)CC3)cc2)cc1S(=O)(=O)C(F)(F)F [AZD4320] + Cc1cc2ncnn2cc1Nc1ncc2c(n1)n(C1CCOCC1)c(=O)n2C [AZD7648] (first compound max 1 µM, 7x7, partner max 10 µM) | 0.153 | 0.457 | 0.432 | 0.744 | 0.269 | 0.66 | 0.524 | -0.0396 | -0.0198 | -0.0866 | 0.0391 | -0.0248 | 0.0066 | 0.0756 | 0.0269 | -0.0018 | -0.012 | -0.0218 | -0.0033 | -0.0482 |
| CN(CCO)CC[C@H](CSc1ccccc1)Nc1ccc(S(=O)(=O)NC(=O)c2ccc(N3CCC([C@@H](O)c4ccccc4-c4ccc(Cl)cc4)CC3)cc2)cc1S(=O)(=O)C(F)(F)F [AZD4320] + C=CCn1c(=O)c2cnc(Nc3ccc(N4CCN(C)CC4)cc3)nc2n1-c1cccc(C(C)(C)O)n1 [AZD1775] (first compound max 1 µM, partner max 1 µM) | 0.412 | 1 | 0.571 | 0.87 | 0.707 | 0.487 | 0.402 | 0.0187 | -0.0682 | 0.0819 | 0.0557 | -0.0149 | 0.0369 | 0.0344 | -0.0132 | 0.0329 | 0.105 | -0.0004 | 0.0598 | -0.0078 |
| COc1nnc2ccc(N3CCC(c4ccc(OCCN5CCN(C)C(=O)[C@H]5C)cc4)CC3)nn12 [AZD5153] + C=CCn1c(=O)c2cnc(Nc3ccc(N4CCN(C)CC4)cc3)nc2n1-c1cccc(C(C)(C)O)n1 [AZD1775] (first compound max 1 µM, partner max 1 µM) | 0.584 | 0.973 | 0.413 | 0.511 | 0.437 | 0.572 | 0.23 | 0.005 | 0.0211 | -0.024 | -0.0856 | -0.123 | -0.0018 | -0.109 | -0.0176 | -0.046 | 0.0216 | -0.0488 | -0.0081 | -0.0014 |
| CC1(C)CCC(CN2CCN(c3ccc(C(=O)NS(=O)(=O)c4ccc(NCC5CCOCC5)c([N+](=O)[O-])c4)c(Oc4cnc5[nH]ccc5c4)c3)CC2)=C(c2ccc(Cl)cc2)C1 [Venetoclax] + COc1cc(Nc2ncc3c(n2)-c2ccc(Cl)cc2C(c2c(F)cccc2OC)=NC3)ccc1C(=O)O [Alisertib] (first compound max 1 µM, 7x7, partner max 10 µM) | 0.337 | 0.506 | 0.18 | 0.51 | 0.234 | 0.727 | 0.658 | -0.0271 | -0.0101 | 0.0145 | 0.08 | 0.0844 | 0.0661 | 0.0652 | 0.0444 | 0.0308 | -0.0026 | 0.0092 | -0.0523 | -0.0033 |
| CC1(C)CCC(CN2CCN(c3ccc(C(=O)NS(=O)(=O)c4ccc(NCC5CCOCC5)c([N+](=O)[O-])c4)c(Oc4cnc5[nH]ccc5c4)c3)CC2)=C(c2ccc(Cl)cc2)C1 [Venetoclax] + C[C@@H](Nc1cc(F)cc(F)c1)c1cc(C(=O)N(C)C)cc2c(=O)cc(N3CCOCC3)oc12 [AZD8186] (first compound max 1 µM, 7x7, partner max 3 µM) | 0.119 | 0.28 | 0.189 | 0.137 | 0.17 | 0.276 | 0.323 | -0.0233 | -0.0295 | -0.0223 | -0.0229 | 0.124 | 0.0967 | 0.0015 | 0.0111 | 0.0263 | -0.0647 | -0.0159 | -0.0296 | -0.0393 |
| CS(=O)(=O)CCNCc1ccc(-c2ccc3ncnc(Nc4ccc(OCc5cccc(F)c5)c(Cl)c4)c3c2)o1 [Lapatinib] + C[C@@H](Oc1cc(-c2cnn(C3CCNCC3)c2)cnc1N)c1c(Cl)ccc(F)c1Cl [Crizotinib] (first compound max 10 µM, 7x7, partner max 10 µM) | 0.579 | 0.909 | 0.301 | 0.596 | 0.557 | 0.697 | 0.576 | 0.0978 | -0.0352 | -0.0207 | -0.0146 | -0.0827 | -0.0501 | -0.0546 | -0.0296 | 0.0226 | 0.0284 | -0.0192 | 0 | -0.021 |
| COc1cccc(OCCCN)c1-c1cc(Nc2cnc(C#N)cn2)n[nH]1 [Prexasertib] + CCc1c2c(nc3ccc(O)cc13)-c1cc3c(c(=O)n1C2)COC(=O)[C@]3(O)CC [SN-38] (first compound max 1 µM, 7x7, partner max 0.3 µM) | 0.855 | 1 | 0.879 | 0.787 | 0.695 | 0.989 | 0.574 | -0.0694 | 0.0461 | 0.0624 | 0.0673 | -0.078 | -0.0868 | -0.0513 | -0.0583 | 0.0056 | -0.0648 | -0.0116 | -0.136 | -0.0767 |
| Cc1c2c(nn1C)CSCc1cc(n(C)n1)CSc1cc(c3ccccc3c1)OCCCc1c(C(=O)O)n(C)c3c-2c(Cl)ccc13 [AZD5991] + Cn1cnc2c(F)c(Nc3ccc(Br)cc3Cl)c(C(=O)NOCCO)cc21 [Selumetinib] (first compound max 1 µM, 7x7, partner max 3 µM) | 0.462 | 0.726 | 0.41 | 0.895 | 0.473 | 0.979 | 0.563 | -0.0019 | -0.0049 | 0.0175 | 0.153 | 0.0026 | 0.0467 | 0.0395 | 0.0006 | 0.0783 | -0.025 | -0.017 | -0.0588 | 0.0081 |
| CC(=O)c1c(C)c2cnc(Nc3ccc(N4CCNCC4)cn3)nc2n(C2CCCC2)c1=O [Palbociclib] + Cn1cnc2c(F)c(Nc3ccc(Br)cc3Cl)c(C(=O)NOCCO)cc21 [Selumetinib] (first compound max 10 µM, 7x7, partner max 10 µM) | 0.385 | 0.0397 | 0.38 | 0.944 | 0.305 | 0.0542 | 0.414 | 0.0982 | 0.0789 | -0.0805 | 0.0253 | 0.0409 | 0.0312 | -0.0505 | 0.043 | 0.0581 | -0.0975 | 0.008 | -0.0174 | 0.0049 |
| C[C@@H](c1ccc2nccn2c1)n1nnc2ncc(-c3cnn(C)c3)nc21 [Savolitinib] + CC1(C)CCC(CN2CCN(c3ccc(C(=O)NS(=O)(=O)c4ccc(NCC5CCOCC5)c([N+](=O)[O-])c4)c(Oc4cnc5[nH]ccc5c4)c3)CC2)=C(c2ccc(Cl)cc2)C1 [Venetoclax] (first compound max 1 µM, 7x7, partner max 1 µM) | 0.0903 | 0.317 | 0.116 | 0.187 | 0.0676 | 0.116 | 0.183 | -0.0642 | -0.0636 | -0.0329 | -0.0427 | -0.0158 | -0.0091 | -0.0025 | -0.0402 | -0.0166 | -0.0801 | -0.0186 | -0.0481 | -0.0816 |
